Assay results published in the NIST ThermoML archive (doi:10.1016/j.jct.2016.05.021).
± gives the expanded uncertainty stated by the source.

Columns and labels:
[1] = refractive index (Na D-line) (dimensionless); conditions: 100 kPa, Standard Abbe refractometry
[2] = 100 kPa; for speed of sound: Frequency=3 MHz, Sing-around technique in a fixed-path interferometer; for mass density: Vibrating tube method
[3] = refractive index (Na D-line) (dimensionless); xn = mol fraction of the nth substance listed; conditions: 100 kPa, Liquid, Standard Abbe refractometry, x1 = 1
[4] = xn = mol fraction of the nth substance listed; conditions: 100 kPa, Liquid, x1 = 1; for speed of sound: Frequency=3 MHz, Sing-around technique in a fixed-path interferometer; for mass density: Vibrating tube method

CCCC[n+]1ccn(C)c1.O=S(=O)([N-]S(=O)(=O)C(F)(F)F)C(F)(F)F
Liquid
Conditions	mass density, [2] [kg/m3]	refractive index, [1]	speed of sound, [2] [m/s]
298.15 K	1433.72 ± 1	1.42671 ± 0.00033	1227.9 ± 1.3
303.15 K	1428.95 ± 1	1.42523 ± 0.00033	1216.8 ± 1.3
308.15 K	1424.18 ± 1	1.42374 ± 0.00033	1205.8 ± 1.2
313.15 K	1419.41 ± 1	1.42225 ± 0.00033	1195 ± 1.2
318.15 K	1414.64 ± 1	1.42076 ± 0.00033	1184.2 ± 1.2
323.15 K	1409.87 ± 1	1.41923 ± 0.00033	1173.6 ± 1.2

CCCC[n+]1ccn(C)c1.O=S(=O)([N-]S(=O)(=O)C(F)(F)F)C(F)(F)F + O=C1CCCN1
Conditions	mass density, [4] [kg/m3]	refractive index, [3]	speed of sound, [4] [m/s]
298.15 K	1433.72 ± 1	1.42671 ± 0.00033	1227.9 ± 1.3
303.15 K	1428.95 ± 1	1.42523 ± 0.00033	1216.8 ± 1.3
308.15 K	1424.18 ± 1	1.42374 ± 0.00033	1205.8 ± 1.2
313.15 K	1419.41 ± 1	1.42225 ± 0.00033	1195 ± 1.2
318.15 K	1414.64 ± 1	1.42076 ± 0.00033	1184.2 ± 1.2
323.15 K	1409.87 ± 1	1.41923 ± 0.00033	1173.6 ± 1.2

O=C1CCCN1 [2-pyrrolidinone]
Metastable liquid
Conditions	mass density, [2] [kg/m3]	refractive index, [1]	speed of sound, [2] [m/s]
298.15 K	1107.16 ± 1	1.48591 ± 0.00033	1634.3 ± 1.4
303.15 K	1103.07 ± 1	1.48403 ± 0.00033	1617.7 ± 1.4
308.15 K	1098.99 ± 1	1.48218 ± 0.00033	1602.3 ± 1.4
313.15 K	1094.9 ± 1	1.48033 ± 0.00033	1585.4 ± 1.4
318.15 K	1090.82 ± 1	1.47841 ± 0.00033	1569.4 ± 1.4
323.15 K	1086.75 ± 1	1.47649 ± 0.00033	1553.5 ± 1.4
